Source: patent publication US20260256818A1, “NOVEL CO-DRUG, CO-ADMINISTRATION, AND SEQUENTIAL ADMINISTRATION OF BISPECIFIC RBP4/TTR LIGAND AND C20-D3-RETINOL FOR ELIMINATION OF MECHANISM-BASED OCULAR ADVERSE EFFECTS IN TREATING MACULAR DEGENERATION AND TTR AMYLOIDOSIS” (The Trustees of Columbia University in the City of New York, priority 2023, published 2026)

Experiments:
[1] = molecular target: TTR tetramers (Homo sapiens, UniProt P02766); conditions: cited from earlier work
[2] = test system: RBP4; conditions: in vivo; cited from earlier work
[3] = test system: rhodopsin; experiment: Rhodopsin measured spectrophotometrically in retinal extracts of dark-adapted mice after 7 days oral dosing; format: in vivo; conditions: wild-type Balb/c mice, 25 mg/kg daily oral (chow), n=8
Description: FIG. 14. Effects of C20-D3-retinyl acetate on rhodopsin levels in ACPHS-52-treated Balb/c mice. Rhodopsin was measured spectrophotometrically in retinal extracts (n=8) from dark-adapted treated and control mice. Treated mice were given 7 daily oral dose of 25 mg/kg ACPHS-52 or the same dose of ACPHS-52 along with 3.3 mg/kg C20-D3-retinyl acetate. Untreated control mice were kept on standard diet.
ACPHS-52 was previously identified and described as a compound that exemplifies a novel class of bispecific ligands that act as both RBP4 antagonists and kinetic stabilizers of TTR tetramers (Cioffi, C. L. et al. 2020). Thus, ACPHS-52 was used as a representative “first component” of the present disclosure in order to assess the feasibility of the co-drug strategy. Accordingly, an experiment was conducted to determine whether partial reduction in functional rhodopsin (opsin with conjugated 11-cis-retinal) induced by oral ACPHS-52 in mice can be compensated by co-administration with C20-D3-retinyl acetate.
The experiment was conducted in Balb/c mice. Three groups of mice were used: control untreated mice; mice treated with ACPHS-52; and mice treated with the ACPHS-52 plus C20-D3-retinyl acetate combination. […] Rhodopsin was measured spectrophotometrically in retinal extracts (n=8) from dark-adapted treated and control mice using a previously published protocol (Racz, B. et al. 2018).

[4] = test system: TTR; conditions: ATTR-CM patients with symptomatic, chronic heart failure, Phase III; cited from earlier work
[5] = test system: lipofuscin bisretinoid synthesis; conditions: Abca4-/- mice; cited from earlier work
[6] = test system: RBP4; conditions: non-human primates, oral administration; cited from earlier work
[7] = molecular target: T1, RBP4 (Mus musculus, UniProt Q00724); conditions: rodents; cited from earlier work
T1 construct: circulating RBP4 plasma levels in rodents; host or cells: plasma/serum of rodents

[8] = Phase 2, dry AMD patients; cited from earlier work
[9] = long-term use, cancer patients; cited from earlier work
[10] = cited from earlier work
[11] = patients treated for TTR amyloidosis; cited from earlier work

Cc1cc(C(=O)O)nc(N2CCC(COc3ccccc3C(F)(F)F)C2)n1 (stereo not shown) [ACPHS-52]
effect on TTR tetramers [1]: stabilization of TTR tetramers
effect on serum RBP4 [2]: pronounced reduction in serum RBP4
reduction in rhodopsin in comparison to untreated mice [3]: 3 fold

Cc1n[nH]c(C)c1CCCOc1cc(C(=O)O)ccc1F [AG10]
stabilization of TTR [4]: near-complete stabilization of TTR

[2H]C([2H])([2H])C(/C=C/C=C(C)/C=C/C1=C(C)CCCC1(C)C)=C\COC(C)=O [C20-D3-retinyl acetate]
effect on retinal bisretinoid accumulation/synthesis [5]: effective in inhibiting bisretinoid synthesis

Cc1cc(C(=O)O)nc(N2C[C@H]3CC(c4ccccc4C(F)(F)F)C[C@H]3C2)n1 (stereo partly shown) [Compound 8, BPN-14136]
effect on serum RBP4 levels [6]: robustly lowered serum RBP4 levels
effect on retinal bisretinoid accumulation/synthesis [5]: inhibited lipofuscin bisretinoid synthesis

O=C(O)c1ccccc1NC(=O)N1CCC(c2ccccc2C(F)(F)F)CC1 [Compound A1120, A1120]
lowering of circulating RBP4 plasma levels [7]: > 70%
effect on retinal bisretinoid accumulation/synthesis [5]: reduce retinal bisretinoid accumulation

CC1=C(/C=C/C(C)=C/C=C/C(C)=C/C(=O)Nc2ccc(O)cc2)C(C)(C)CCC1 [fenretinide]
drug-treated patients with reversible reduction in dark adaptation [8]: ~ 10%
yearly prevalence of transient and reversible ocular AEs such as diminished dark adaptation [9]: 5.8-6.7%

O=C(O)c1ccc2nc(-c3cc(Cl)cc(Cl)c3)oc2c1 [tafamidis]
patients who do not respond [10]: Approximately 30%

patisiran
ocular adverse effect [11]: symptoms of night blindness in a subset of patients
